Patent US20260294908A1, “NEUROACTIVE ANDROGEN RECEPTOR MODULATORS AND USE THEREOF” (priority 2023, published 2026)
Read-outs that look alike come from different tables or passages of the source.

How the values were obtained:
[1] = target: recombinant human androgen receptor (AR) protein (Homo sapiens, UniProt P10275); type: binding
[2] = for metabolites detected after administration: high-resolution mass spectrometry; for metabolites detected after administration / concentration of metabolites in serum and brain (in words): metabolite = compound of Example 3; for concentration of the compound in serum and brain (in words): after administration
Experimental: • (1) The experimental protocol was referenced and complied with the National Institutes of Health Guide for the Care and Use of Laboratory Animals, and was approved by the Laboratory Animal Welfare and Ethics Committee of the Chinese Institute for Brain Research (CIBR). • (2) Wild-type male C57BL/6J mice, aged 6-7 weeks and weighing 18-22 grams, were used. The mice were housed in a constant-temperature incubator with a 12-hour light-dark cycle and free access to food and water. Food was withheld one day before the experiment, while free access to water was permitted. The mice were injected intraperitoneally with the test compound at a dose of 20 mg/kg. […] After sampling, the samples were immediately centrifuged at low speed to remove blood cells, and hemolysis was minimized as much as possible. After collection, the serum was sent to the mass spectrometry center for pretreatment. • (4) The brain tissue was rapidly dissected after treatment and frozen in liquid nitrogen for later use.
The sample (100 μL) was warmed to the room temperature, acetonitrile: methanol (500 μL, v/v=50:50) was added to the solution, and the sample was vortexed for 20 s. The sample was centrifuged at 5,000 g for 15 min at 4° C. Subsequently, 90% of the supernatant was transferred to a glass tube and concentrated at 45° C. for 1.5 h using a vacuum concentrator. The dried sample was reconstituted in 400 μL of acetonitrile and water mixture (v/v=50/50) and vortexed for 20 s. The resulting mixture was transferred to an EP tube and centrifuged at 5,000 g for 15 min at 4° C. The supernatant was filtered through a 0.22 μm filter and analyzed by LC-MS/MS.
The brain sample (100 mg) was thawed, transferred to a homogenizer tube containing three zirconia beads, and homogenized. After processing as described for the serum samples, the supernatant was then filtered through a 0.22 μm filter, and analyzed by LC-MS/MS.

androgen receptor = target: T1, androgen receptor (Homo sapiens, UniProt P10275); test: cell-based; type: cell-based; conditions: for Emax: HEK-293T, read-out: % relative efficacy
T1 construct: expressed in transfected cells; host or cells: HEK293T (ATCC, CRL-3216)
Experimental: Androgen Receptor Reporter Gene Assay (AR Reporter Gene Assay)
This experiment was performed to investigate the agonistic activity of the compounds of the present disclosure on androgen receptors.
The EC50 was calculated according to the following formula: […]
X represents the logarithm of the activator concentration; Y represents the […]; Bottom represents the lowest plateau value of the curve; Top represents the highest plateau value of the curve; and Hillslope represents the slope of the curve.
The % relative effectiveness was calculated according to the following formula: […]
Activatedcmpd: mean activation value of the compound signal across the entire plate.
ActivatedAve_PC: mean activation value of the positive control across the entire plate.
ActivatedAve_VC: mean activation value of the vehicle control across the entire plate.

[3] = mouse, 20 mg/kg intraperitoneal

recombinant human androgen receptor (AR) protein, sequence (P10275 673-918): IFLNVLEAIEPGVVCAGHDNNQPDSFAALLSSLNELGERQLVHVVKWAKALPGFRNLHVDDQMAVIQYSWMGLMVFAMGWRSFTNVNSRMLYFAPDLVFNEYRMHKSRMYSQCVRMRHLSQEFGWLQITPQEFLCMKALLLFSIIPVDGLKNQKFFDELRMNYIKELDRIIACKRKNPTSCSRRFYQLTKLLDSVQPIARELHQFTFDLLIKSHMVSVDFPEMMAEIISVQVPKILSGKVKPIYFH
T1 sequence (P10275 whole entry): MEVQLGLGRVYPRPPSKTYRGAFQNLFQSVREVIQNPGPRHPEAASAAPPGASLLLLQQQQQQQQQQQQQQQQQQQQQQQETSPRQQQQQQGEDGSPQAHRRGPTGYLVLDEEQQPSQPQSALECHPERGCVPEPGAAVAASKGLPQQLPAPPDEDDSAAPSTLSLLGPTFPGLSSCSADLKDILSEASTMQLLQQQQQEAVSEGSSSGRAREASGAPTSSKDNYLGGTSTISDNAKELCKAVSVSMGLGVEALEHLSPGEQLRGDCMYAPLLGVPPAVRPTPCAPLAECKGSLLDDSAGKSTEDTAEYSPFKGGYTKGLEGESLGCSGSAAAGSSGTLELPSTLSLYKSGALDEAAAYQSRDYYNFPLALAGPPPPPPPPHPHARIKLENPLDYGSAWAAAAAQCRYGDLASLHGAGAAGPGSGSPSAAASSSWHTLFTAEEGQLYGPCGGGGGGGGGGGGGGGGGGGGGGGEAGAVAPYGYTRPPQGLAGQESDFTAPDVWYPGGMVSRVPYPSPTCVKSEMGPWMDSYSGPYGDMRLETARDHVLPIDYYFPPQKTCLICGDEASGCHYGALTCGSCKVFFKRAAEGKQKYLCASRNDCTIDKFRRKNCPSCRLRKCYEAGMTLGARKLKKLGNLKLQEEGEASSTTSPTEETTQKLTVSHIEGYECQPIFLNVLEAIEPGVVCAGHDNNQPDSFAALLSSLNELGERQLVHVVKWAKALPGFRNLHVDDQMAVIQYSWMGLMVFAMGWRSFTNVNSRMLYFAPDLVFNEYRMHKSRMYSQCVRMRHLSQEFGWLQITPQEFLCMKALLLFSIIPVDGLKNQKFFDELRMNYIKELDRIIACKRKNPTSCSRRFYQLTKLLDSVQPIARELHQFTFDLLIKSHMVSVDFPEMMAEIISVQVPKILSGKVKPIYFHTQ

| Compound | blood-brain barrier permeability (in words) [2, 3] | metabolites detected after administration [2] | concentration of metabolites in serum and brain (in words) [2] | concentration of the compound in serum and brain (in words) ([2]; parent compound) | further results |
| --- | --- | --- | --- | --- | --- |
| C[C@](O)(COc1cc(C(F)(F)F)ncn1)C(=O)Nc1cnc(C#N)c(C(F)(F)F)c1 [Ex. 1, (S)-N-(6-cyano-5-(trifluoromethyl)pyridin-3-yl)-2-hydroxy-2-methyl-3-((6-(trifluoromethyl)pyrimidin-4-yl)oxy)propionamide] |  |  |  |  | Affinity KD [1]: No binding |
| C[C@](O)(COc1cc(C(F)(F)F)ncn1)C(=O)Nc1ccc(C#N)c(C(F)(F)F)c1 [Ex. 2, (S)-N-(4-cyano-3-(trifluoromethyl)phenyl)-2-hydroxy-2-methyl-3-((6-(trifluoromethyl)pyrimidin-4-yl)oxy)propionamide] |  |  |  |  | Affinity KD ([1]; Biacore T200, CM5 chip, human AR Ile673-His918 with N-terminal His Tag): No binding |
| C[C@](O)(COc1ccc(C#N)cc1)C(=O)Nc1cnc(C#N)c(C(F)(F)F)c1 [Ex. 3, (S)-N-(6-cyano-5-(trifluoromethyl)pyridin-3-yl)-3-(4-cyanophenoxy)-2-hydroxy-2-methylpropionamide] | good blood-brain barrier permeability |  |  |  | concentration detected in serum and brain (in words) ([2]; up to 72 h, 20 mg/kg intraperitoneal, parent compound): certain concentrations of the compound were detected in serum and brain up to 72 h after administration; affinity to the androgen receptor proteins (in words) [1]: strong affinity; androgen receptor protein binding affinity and agonistic activity (in words) (androgen receptor): excellent androgen receptor protein binding affinity and agonistic activity |
| C[C@](O)(COc1ccc(C#N)nc1)C(=O)Nc1ccc(C#N)c(C(F)(F)F)c1 [Ex. 4, (S)-N-(4-cyano-3-(trifluoromethyl)phenyl)-3-((6-cyanopyridin-3-yl)oxy)-2-hydroxy-2-methylpropionamide] |  |  |  |  | affinity to the androgen receptor proteins (in words) [1]: strong affinity |
| C[C@](O)(COc1ccc(C#N)nc1)C(=O)Nc1cnc(C#N)c(C(F)(F)F)c1 [Ex. 5, (S)-N-(6-cyano-5-(trifluoromethyl)pyridin-3-yl)-3-((6-cyanopyridin-3-yl)oxy)-2-hydroxy-2-methylpropionamide] |  |  |  |  | affinity to the androgen receptor proteins (in words) [1]: strong affinity; androgen receptor protein binding affinity and agonistic activity (in words) (androgen receptor): excellent androgen receptor protein binding affinity and agonistic activity |
| C[C@](O)(COc1ccc(C#N)c(F)c1)C(=O)Nc1cnc(C#N)c(C(F)(F)F)c1 [Ex. 8, (S)-3-(4-cyano-3-fluorophenoxy)-N-(6-cyano-5-(trifluoromethyl)pyridin-3-yl)-2-hydroxy-2-methylpropionamide] |  |  |  |  | concentration detected in serum and brain (in words) ([2]; mouse, in vivo, ip, 20 mg/kg): certain concentrations of the compound were detected in serum and brain up to 72 h after administration; blood-brain barrier permeability (in words) ([2]; mouse, not told, ip, 20 mg/kg): good blood-brain barrier permeability |
| C[C@@](COc1ccc(C#N)cc1)(OC(=O)c1cccnc1)C(=O)Nc1cnc(C#N)c(C(F)(F)F)c1 [Ex. 13, (S)-1-((6-cyano-5-(trifluoromethyl)pyridin-3-yl)amino)-3-(4-cyanophenoxy)-2-methyl-1-oxopropan-2-yl nicotinate] | certain blood-brain barrier permeability | detected | higher concentrations of metabolites | lower concentrations of the compound |  |
| C[C@@](COc1ccc(C#N)cc1)(OC(=O)CCCC[C@@H]1CCSS1)C(=O)Nc1cnc(C#N)c(C(F)(F)F)c1 [Ex. 15, (S)-1-((6-cyano-5-(trifluoromethyl)pyridin-3-yl)amino)-3-(4-cyanophenoxy)-2-methyl-1-oxopropyl-2-yl 5-((R)-1,2-dithiolan-3-yl) pentanoate] |  |  |  |  | metabolism (in words) ([2]; mouse, in vivo): may undergo rapid metabolic processes in vivo |
| CC(C)C(=O)O[C@@](C)(COc1ccc(C#N)cc1)C(=O)Nc1cnc(C#N)c(C(F)(F)F)c1 [Ex. 21, (S)-1-((6-cyano-5-(trifluoromethyl)pyridin-3-yl)amino)-3-(4-cyanophenoxy)-2-methyl-1-oxopropan-2-yl isobutyrate] | certain blood-brain barrier permeability | detected | higher concentrations of metabolites | lower concentrations of the compound |  |
| C[C@@](COc1ccc(C#N)cc1)(OC(=O)C1CCCC1)C(=O)Nc1cnc(C#N)c(C(F)(F)F)c1 [Ex. 22, (S)-1-((6-cyano-5-(trifluoromethyl)pyridin-3-yl)amino)-3-(4-cyanophenoxy)-2-methyl-1-oxopropan-2-yl cyclopentanecarboxylate] | certain blood-brain barrier permeability | detected | higher concentrations of metabolites | lower concentrations of the compound | Emax (androgen receptor): 2.3% |
| CC(=O)O[C@@](C)(COc1ccc(C#N)cc1)C(=O)Nc1cnc(C#N)c(C(F)(F)F)c1 [Ex. 24, (S)-1-((6-cyano-5-(trifluoromethyl)pyridin-3-yl)amino)-3-(4-cyanophenoxy)-2-methyl-1-oxopropan-2-yl acetate] |  | detected |  |  | bioavailability in the brain (in words) ([2]; compared with Example 3): significantly improved; metabolism (in words) ([2]; in vivo, mouse): partially metabolized to the compound of Example 3; total concentration of parent drug and metabolites in the brain (in words) ([2]; mouse, in vivo): significantly higher |
| C[C@@](COc1ccc(C#N)cc1)(OC(=O)c1ccccc1)C(=O)Nc1cnc(C#N)c(C(F)(F)F)c1 [Ex. 26, (S)-1-((6-cyano-5-(trifluoromethyl)pyridin-3-yl)amino)-3-(4-cyanophenoxy)-2-methyl-1-oxopropan-2-yl benzoate] | certain blood-brain barrier permeability | detected | higher concentrations of metabolites | lower concentrations of the compound | affinity to the androgen receptor proteins (in words) [1]: strong affinity |
| CCC(=O)O[C@@](C)(COc1ccc(C#N)cc1)C(=O)Nc1cnc(C#N)c(C(F)(F)F)c1 [Ex. 28, (S)-1-((6-cyano-5-(trifluoromethyl)pyridin-3-yl)amino)-3-(4-cyanophenoxy)-2-methyl-1-oxopropan-2-yl-propionate] | certain blood-brain barrier permeability | detected | higher concentrations of metabolites | lower concentrations of the compound |  |
| C[C@@](COc1ccc(Cl)nc1)(OC(=O)c1cccnc1)C(=O)Nc1cnc(C#N)c(C(F)(F)F)c1 [Ex. 30, (S)-1-((6-cyano-5-(trifluoromethyl)pyridin-3-yl)amino)-3-((6-chloropyridin-3-yl)oxy)-2-methyl-1-oxopropan-2-yl nicotinate] |  |  |  |  | Emax (androgen receptor): 14.5% |
